Converted amounts (≈) assume the structure as drawn. Like-named read-outs stand apart in the source and are kept apart here. *1 amine or outer side, *2 acyl side, *3 side chain or, on linkers, in order; H or OH if unused. Where a SMILES comes first, the peptide text is derived from it. Bridges are numbered along the chain shown (N, C = ends). [ ]: non-standard residue; d: D form. The star is where a group is joined. ξ: configuration not given here. Piperazine(2S-CO,4-Me) = CN1CCN[C@H](C(=O)O)C1; Phe(3,5-F2) = N[C@@H](Cc1cc(F)cc(F)c1)C(=O)O; NH(1-Me-indolin-5-yl) = CN1CCc2cc(N*)ccc21; Morpholine(3S-CO) = O=C(O)[C@@H]1COCCN1; Pro(4S-Me) = C[C@@H]1CN[C@H](C(=O)O)C1; NH(4-Cl-2-F-phenyl) = Fc1cc(Cl)ccc1N*; Pro(4R-Me) = C[C@H]1CN[C@H](C(=O)O)C1; NH(3,4-Me2-phenyl) = Cc1ccc(N*)cc1C; NMeaThr = CN[C@H](C(=O)O)[C@H](C)O; Hyp = O=C(O)[C@@H]1C[C@@H](O)CN1; NH(4-Et-phenyl) = CCc1ccc(N*)cc1; NH(4-Me-phenyl) = Cc1ccc(N*)cc1; ξNMeThr = CNC(C(=O)O)[C@@H](C)O; aThr = C[C@H](O)[C@H](N)C(=O)O; Pip = O=C(O)[C@@H]1CCCCN1; CO = O=C([*:1])[*:2]
Legend:
[1] = target: T1, Sa-ClpP (Staphylococcus aureus, UniProt Q2G036); assay: Sa-ClpP casein-BODIPY ClpP activation assay, method variant not marked in Table 5; format: biochemical, S. aureus
T1 construct: made in house; host or cells: E. coli BL21(DE3)
T1 sequence (Q2G036 1-195): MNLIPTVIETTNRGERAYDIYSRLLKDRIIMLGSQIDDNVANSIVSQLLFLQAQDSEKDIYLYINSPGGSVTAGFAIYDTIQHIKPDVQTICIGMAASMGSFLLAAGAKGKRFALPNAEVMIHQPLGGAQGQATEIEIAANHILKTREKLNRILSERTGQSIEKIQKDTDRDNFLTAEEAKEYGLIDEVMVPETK
In short: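 EC50 for activation derived by dose-response fitting of casein digestion rates, run in triplicate. Conditions: 37° C, pH 8 buffer with 200 mM KCl and 1 mM TCEP, 10 μM Sa-ClpP, 25 μg/ml BODIPY FL casein, compound at 0-1000 μM; signal at 485/528 nm followed 45 min.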

[2] = system: Streptococcus pneumoniae, R6; assay: Minimal inhibitory concentration assay; format: cell-based; conditions: read-out: Minimal Inhibitory Concentrations S. pneumoniae R6
In short: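 Microbroth dilution with two-fold serial compound dilutions in broth, incubated aerobically overnight at 37° C. MIC taken as the lowest concentration preventing bacterial growth.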

[3] = values without ** or † mark, assay variant not stated, read-out: ClpP Activation EC50

Row | SMILES | EC50 [1, 3] [nM] | MIC [2] [µM] | EC50 [1] [nM]
1 | Cc1ccc(NC(=O)N[C@@H](Cc2ccccc2)C(=O)N[C@H]2COC(=O)[C@@H]3C[C@@H](C)CN3C(=O)[C@H](C)NC(=O)[C@@H]3CCCCN3C(=O)[C@@H]3CCCN3C2=O)cc1C [Compound 206, (S)—N-((2R,6S,8aS,14aS,20S,23aS)-2,6-dimethyl-5,8,14,19,23-pentaoxooctadecahydro-1H,5H,14H,19H-pyrido[2,1-i]dipyrrolo[2,1-c:2′,1′-l][1]oxa[4,7,10,13]tetraazacyclohexadecin-20-yl)-2-(3-(3,4-dimethylphenyl)ureido)-3-phenylpropanamide] | 1600 ± 300 | < 0.2 | –
2 | Cc1ccc(NC(=O)N[C@@H](Cc2cc(F)cc(F)c2)C(=O)N[C@@H]2C(=O)N3C[C@H](O)C[C@H]3C(=O)N3CCOC[C@H]3C(=O)N[C@@H](C)C(=O)N3C[C@H](C)C[C@H]3C(=O)O[C@H]2C)cc1C [Compound 215, (S)-3-(3,5-difluorophenyl)-2-(3-(3,4-dimethylphenyl)ureido)-N-((6aS,8R,12S,13S,15aS,17R,21S,23aS)-8-hydroxy-13,17,21-trimethyl-6,11,15,20,23-pentaoxooctadecahydro-6H,11H,15H-[1,4]oxazino[3,4-i]dipyrrolo[2,1-c:2′,1′-l][1]oxa[4,7,10,13]tetraazacyclohexadecin-12-yl)propanamide] ({NH(3,4-Me2-phenyl)-CO}-[Phe(3,5-F2)][aThr][Hyp][Morpholine(3S-CO)]A[Pro(4R-Me)]; ester 2-C) | 500 ± 10 | < 0.2 | –
3 | CCc1ccc(NC(=O)N[C@@H](Cc2cc(F)cc(F)c2)C(=O)N[C@@H]2C(=O)N3C[C@H](O)C[C@H]3C(=O)N3CCCC[C@H]3C(=O)N[C@@H](C)C(=O)N3C[C@H](C)C[C@H]3C(=O)O[C@H]2C)cc1 [Compound 211, (S)-3-(3,5-difluorophenyl)-2-(3-(4-ethylphenyl)ureido)-N-((2R,6S,8aS,14aS,16R,20S,21S,23aS)-16-hydroxy-2,6,21-trimethyl-5,8,14,19,23-pentaoxooctadecahydro-1H,5H,14H,19H-pyrido[2,1-i]dipyrrolo[2,1-c:2′,1′-l][1]oxa[4,7,10,13]tetraazacyclohexadecin-20-yl)propanamide] ({NH(4-Et-phenyl)-CO}-[Phe(3,5-F2)][aThr][Hyp][Pip]A[Pro(4R-Me)]; ester 2-C) | – | 0.005 (≈ 0.00419 µg/mL) | 500 ± 10
4 | Cc1ccc(NC(=O)N[C@@H](Cc2cc(F)cc(F)c2)C(=O)N[C@H]2COC(=O)[C@@H]3C[C@@H](C)CN3C(=O)[C@H](C)NC(=O)C([C@@H](C)O)N(C)C(=O)[C@@H]3CCCN3C2=O)cc1 (stereo partly drawn) [Compound 322, (S)-3-(3,5-difluorophenyl)-N-((2R,6S,9R,11aS,17S,20aS)-9-((R)-1-hydroxyethyl)-2,6,10-trimethyl-5,8,11,16,20-pentaoxohexadecahydro-1H,5H,16H-dipyrrolo[2,1-c:2′,1′-l][1]oxa[4,7,10,13]tetraazacyclohexadecin-17-yl)-2-(3-(p-tolyl)ureido)propanamide] ({NH(4-Me-phenyl)-CO}-[Phe(3,5-F2)]SP[ξNMeThr]A[Pro(4R-Me)]; ester 2-C) | 560 ± 30 | 0.156 (≈ 0.124 µg/mL) | –
5 | Cc1ccc(NC(=O)N[C@@H](Cc2cc(F)cc(F)c2)C(=O)N[C@@H]2C(=O)N3C[C@H](O)C[C@H]3C(=O)N3CCCC[C@H]3C(=O)N[C@@H](C)C(=O)N3C[C@H](C)C[C@H]3C(=O)O[C@H]2C)cc1C [Compound 212, (S)-3-(3,5-difluorophenyl)-2-(3-(3,4-dimethylphenyl)ureido)-N-((2R,6S,8aS,14aS,16R,20S,21S,23aS)-16-hydroxy-2,6,21-trimethyl-5,8,14,19,23-pentaoxooctadecahydro-1H,5H,14H,19H-pyrido[2,1-i]dipyrrolo[2,1-c:2′,1′-l][1]oxa[4,7,10,13]tetraazacyclohexadecin-20-yl)propanamide] ({NH(3,4-Me2-phenyl)-CO}-[Phe(3,5-F2)][aThr][Hyp][Pip]A[Pro(4R-Me)]; ester 2-C) | 500 ± 30 | 0.002 (≈ 0.00168 µg/mL) | –
6 | C[C@@H]1C[C@H]2C(=O)OC[C@H](NC(=O)[C@H](Cc3cc(F)cc(F)c3)NC(=O)Nc3ccc(Cl)cc3F)C(=O)N3CCC[C@H]3C(=O)N3CCN(C)C[C@H]3C(=O)N[C@@H](C)C(=O)N2C1 [Compound 330, (S)-2-(3-(4-chloro-2-fluorophenyl)ureido)-3-(3,5-difluorophenyl)-N-((6aS,12S,15aS,17R,21S,23aS)-2,17,21-trimethyl-6,11,15,20,23-pentaoxooctadecahydro-2H,6H,11H,15H-pyrazino[2,1-i]dipyrrolo[2,1-c:2′,1′-l][1]oxa[4,7,10,13]tetraazacyclohexadecin-12-yl)propanamide] ({NH(4-Cl-2-F-phenyl)-CO}-[Phe(3,5-F2)]SP[Piperazine(2S-CO,4-Me)]A[Pro(4R-Me)]; ester 2-C) | – | 0.039 (≈ 0.033 µg/mL) | 290 ± 20
7 | C[C@@H]1C[C@H]2C(=O)OC[C@H](NC(=O)[C@H](Cc3cc(F)cc(F)c3)NC(=O)Nc3ccc4c(c3)OCO4)C(=O)N3C[C@H](O)C[C@H]3C(=O)N3CCCCC3C(=O)N[C@@H](C)C(=O)N2C1 (stereo partly drawn) [Compound 325, (S)-2-(3-(benzo[d][1,3]dioxol-5-yl)ureido)-3-(3,5-difluorophenyl)-N-((2R,6S,8aR,14aS,16R,20S,23aS)-16-hydroxy-2,6-dimethyl-5,8,14,19,23-pentaoxooctadecahydro-1H,5H,14H,19H-pyrido[2,1-i]dipyrrolo[2,1-c:2′,1′-l][1]oxa[4,7,10,13]tetraazacyclo-hexadecin-20-yl)propanamide] | – | 0.078 (≈ 0.0655 µg/mL) | 350 ± 20
8 | C[C@@H]1C[C@H]2C(=O)O[C@@H](C)[C@H](NC(=O)[C@H](Cc3cc(F)cc(F)c3)NC(=O)Nc3ccc(Cl)cc3F)C(=O)N3CCC[C@H]3C(=O)N(C)C([C@@H](C)O)C(=O)N[C@@H](C)C(=O)N2C1 (stereo partly drawn) [Compound 313, (S)-2-(3-(4-chloro-2-fluorophenyl)ureido)-3-(3,5-difluorophenyl)-N-((2R,6S,9R,11aS,17S,18S,20aS)-9-((R)-1-hydroxyethyl)-2,6,10,18-tetramethyl-5,8,11,16,20-pentaoxohexadecahydro-1H,5H,16H-dipyrrolo[2,1-c:2′,1′-l][1]oxa[4,7,10,13]tetraazacyclohexadecin-17-yl)propanamide] ({NH(4-Cl-2-F-phenyl)-CO}-[Phe(3,5-F2)][aThr]P[ξNMeThr]A[Pro(4R-Me)]; ester 2-C) | – | < 0.02 | 340 ± 10
9 | CCc1ccc(NC(=O)N[C@@H](Cc2cc(F)cc(F)c2)C(=O)N[C@@H]2C(=O)N3CCC[C@H]3C(=O)N(C)[C@@H]([C@H](C)O)C(=O)N[C@@H](C)C(=O)N3C[C@@H](C)C[C@H]3C(=O)O[C@H]2C)cc1 [Compound 204, (S)-3-(3,5-difluorophenyl)-2-(3-(4-ethylphenyl)ureido)-N-((2S,6S,9S,11aS,17S,18S,20aS)-9-((S)-1-hydroxyethyl)-2,6,10,18-tetramethyl-5,8,11,16,20-pentaoxohexadecahydro-1H,5H,16H-dipyrrolo[2,1-c:2′,1′-l][1]oxa[4,7,10,13]tetraazacyclohexadecin-17-yl)propanamide] ({NH(4-Et-phenyl)-CO}-[Phe(3,5-F2)][aThr]P[NMeaThr]A[Pro(4S-Me)]; ester 2-C) | 350 ± 10 | 0.024 (≈ 0.0198 µg/mL) | –
10 | C[C@@H]1C[C@H]2C(=O)O[C@@H](C)[C@H](NC(=O)[C@H](Cc3cc(F)cc(F)c3)NC(=O)Nc3ccc4c(c3)CCN4C)C(=O)N3CCC[C@H]3C(=O)N3CCOC[C@H]3C(=O)N[C@@H](C)C(=O)N2C1 [Compound 312, (S)-3-(3,5-difluorophenyl)-2-(3-(1-methylindolin-5-yl)ureido)-N-((6aS,12S,13S,15aS,17R,21S,23aS)-13,17,21-trimethyl-6,11,15,20,23-pentaoxooctadecahydro-6H,11H,15H-[1,4]oxazino[3,4-i]dipyrrolo[2,1-c:2′,1′-l][1]oxa[4,7,10,13]tetraazacyclo-hexadecin-12-yl)propanamide] ({NH(1-Me-indolin-5-yl)-CO}-[Phe(3,5-F2)][aThr]P[Morpholine(3S-CO)]A[Pro(4R-Me)]; ester 2-C) | 440 ± 20 | 0.078 (≈ 0.0664 µg/mL) | –
11 | C[C@@H]1C[C@H]2C(=O)O[C@@H](C)[C@H](NC(=O)[C@H](Cc3cc(F)cc(F)c3)NC(=O)Nc3ccc4c(c3)CCN4C)C(=O)N3CCC[C@H]3C(=O)N(C)C([C@@H](C)O)C(=O)N[C@@H](C)C(=O)N2C1 (stereo partly drawn) [Compound 311, (S)-3-(3,5-difluorophenyl)-N-((2R,6S,9R,11aS,17S,18S,20aS)-9-((R)-1-hydroxyethyl)-2,6,10,18-tetramethyl-5,8,11,16,20-pentaoxohexadecahydro-1H,5H,16H-dipyrrolo[2,1-c:2′,1′-l][1]oxa[4,7,10,13]tetraazacyclohexadecin-17-yl)-2-(3-(1-methylindolin-5-yl)ureido)propanamide] ({NH(1-Me-indolin-5-yl)-CO}-[Phe(3,5-F2)][aThr]P[ξNMeThr]A[Pro(4R-Me)]; ester 2-C) | 540 ± 20 | 0.078 (≈ 0.0665 µg/mL) | –
12 | C[C@@H]1C[C@H]2C(=O)O[C@@H](C)[C@H](NC(=O)[C@H](Cc3cc(F)cc(F)c3)NC(=O)Nc3ccc(Cl)cc3F)C(=O)N3CCC[C@H]3C(=O)N3CCOC[C@H]3C(=O)N[C@@H](C)C(=O)N2C1 [Compound 314, (S)-2-(3-(4-chloro-2-fluorophenyl)ureido)-3-(3,5-difluorophenyl)-N-((6aS,12S,13S,15aS,17R,21S,23aS)-13,17,21-trimethyl-6,11,15,20,23-pentaoxooctadecahydro-6H,11H,15H-[1,4]oxazino[3,4-i]dipyrrolo[2,1-c:2′,1′-l][1]oxa[4,7,10,13]tetraazacyclo-hexadecin-12-yl)propanamide] ({NH(4-Cl-2-F-phenyl)-CO}-[Phe(3,5-F2)][aThr]P[Morpholine(3S-CO)]A[Pro(4R-Me)]; ester 2-C) | – | < 0.02 | 400 ± 10
